US20090036474A1, “Quinazoline derivatives for use against cancer” (priority 2004, published 2009)

Biological target: T1, phospho-Tyr751 PDGFRβ (Homo sapiens, UniProt P09619)
T1 construct: phosphorylation of PDGFR expressed on MG63 osteosarcoma cells; endogenous in cells; host or cells: MG63 osteosarcoma cells
Test: In vitro phospho-Tyr751 PDGFRβ ELISA assay in MG63 osteosarcoma cells, Test (b)
Assay type: cell-based
Conditions: MG63 cells stimulated with PDGFBB, read-out: IC50 versus phospho-Tyr751 PDGFRβ
Protocol: This assay uses a conventional ELISA method to determine the ability of test compounds to inhibit phosphorylation of tyrosine in PDGFRβ.
An MG63 osteosarcoma cell line [American Type Culture Collection (ATCC) CCL 1427] was routinely maintained at 37° C. with 7.5% CO2 in Dulbecco's modified Eagle's growth medium (DMEM; Sigma-Aldrich; Catalogue No. D6546) containing 10% foetal calf serum (FCS; Sigma-Aldrich; Catalogue No. F7524) and 2 mM L-glutamine (Invitrogen Ltd., Paisley, UK; Catalogue No. 25030-024).
For the assay, the cells were detached from the culture flask using a trypsin/ethylenediaminetetraacetic acid (EDTA) mixture (Invitrogen Ltd.; Catalogue No. 15400-054) and resuspended in test media comprising DMEM without phenol red (Sigma-1-Aldrich; Catalogue No. D5921) containing 1% charcoal-stripped-foetal calf serum (FCS) (Sigma-Aldrich; Catalogue No. F7524, stripped by incubation with dextran-coated activated charcoal at 55° C. for 30 minutes with continuous stirring followed by removal of the charcoal by centrifugation and filter sterilisation) and 2 mM L-glutamine (Invitrogen Ltd., Catalogue No. 25030-024) to give 6×10^4 cells per ml. […]

T1 sequence (P09619 33-1106): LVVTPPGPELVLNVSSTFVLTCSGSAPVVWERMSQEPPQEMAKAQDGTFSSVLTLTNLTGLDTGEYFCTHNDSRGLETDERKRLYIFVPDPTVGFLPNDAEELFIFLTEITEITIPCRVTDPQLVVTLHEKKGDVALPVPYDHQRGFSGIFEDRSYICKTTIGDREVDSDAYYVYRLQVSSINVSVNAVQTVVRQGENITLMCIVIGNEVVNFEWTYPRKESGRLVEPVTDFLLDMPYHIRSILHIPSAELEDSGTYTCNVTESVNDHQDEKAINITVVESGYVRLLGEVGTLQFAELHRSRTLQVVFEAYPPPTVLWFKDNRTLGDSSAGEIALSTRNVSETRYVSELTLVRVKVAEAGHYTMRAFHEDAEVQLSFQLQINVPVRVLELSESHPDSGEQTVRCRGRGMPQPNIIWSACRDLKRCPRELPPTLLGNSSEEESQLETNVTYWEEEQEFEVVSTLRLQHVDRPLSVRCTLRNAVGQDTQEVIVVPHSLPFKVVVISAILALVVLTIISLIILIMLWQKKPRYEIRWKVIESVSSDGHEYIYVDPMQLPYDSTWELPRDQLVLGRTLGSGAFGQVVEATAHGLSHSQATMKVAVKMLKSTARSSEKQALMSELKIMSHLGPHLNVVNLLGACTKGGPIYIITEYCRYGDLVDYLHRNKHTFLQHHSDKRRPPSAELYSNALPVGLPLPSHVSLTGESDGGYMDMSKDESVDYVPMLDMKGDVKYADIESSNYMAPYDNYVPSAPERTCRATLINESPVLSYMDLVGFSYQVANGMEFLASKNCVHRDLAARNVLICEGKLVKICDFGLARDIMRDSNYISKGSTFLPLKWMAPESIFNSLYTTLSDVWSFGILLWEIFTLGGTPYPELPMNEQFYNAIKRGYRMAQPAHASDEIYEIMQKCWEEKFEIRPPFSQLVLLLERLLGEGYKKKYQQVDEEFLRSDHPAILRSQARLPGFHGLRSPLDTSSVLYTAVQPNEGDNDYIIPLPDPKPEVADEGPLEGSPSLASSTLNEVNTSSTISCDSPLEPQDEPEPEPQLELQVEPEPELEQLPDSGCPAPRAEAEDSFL

SMILES: COc1cc2ncnc(Oc3cnn(CC(=O)Nc4cccc5c4OCO5)c3)c2cc1OC [Example 2, N-(2,3-methylenedioxyphenyl)-2-[4-(6,7-dimethoxyquinazolin-4-yloxy)pyrazol-1-yl]acetamide]
- IC50: ~3 nM
